From ChEMBL document CHEMBL5120875, “Discovery of diarylheptanoids that activate α7 nAchR-JAK2-STAT3 signaling in macrophages with anti-inflammatory activity in vitro and in vivo” (Bioorg Med Chem, 2022)
pIC50: −log10 of the molar value. The source made the active and inactive calls. The calls are words filed in the database; no cut-off is given here.

How the values were obtained:
RAW264.7 [1] = assay: Inhibition of LPS-induced NO production in mouse RAW264.7 cells at 5 uM preincubated with compound for 2 hrs followed by LPS stimulation for 24 hrs by Griess reagent based assay relative to control; format: functional; conditions: time 26 hrs
RAW264.7 [2] = assay: Inhibition of LPS-induced NO production in mouse RAW264.7 cells preincubated with compound for 2 hrs followed by LPS stimulation for 24 hrs by Griess reagent based assay; format: functional, cell-based
RAW264.7 [3] = assay: Cytotoxicity against mouse RAW264.7 cells assessed as effect on cell viability at 5 uM incubated for 24 hrs by alamar blue reagent based fluorescence assay; format: toxicity; conditions: raw264.7, 24 h
RAW264.7 [4] = assay: Antiinflammatory activity in mouse RAW264.7 cells assessed as inhibition of LPS-induced IL-6 production preincubated for 2 hrs followed by LPS-stimulation for 24 hrs by ELISA; format: functional, cell-based; conditions: dose 0.2-5 µM, time 26.0 hrs, DDE = dose-dependent effect
RAW264.7 [5] = assay: Antiinflammatory activity in mouse RAW264.7 cells assessed as inhibition of LPS-induced IL-1beta production preincubated for 2 hrs followed by LPS-stimulation for 24 hrs by ELISA; format: functional, cell-based; conditions: dose 0.2-5 µM, time 26.0 hrs, DDE = dose-dependent effect
RAW264.7 [6] = assay: Antiinflammatory activity in mouse RAW264.7 cells assessed as decrease in LPS-induced IL-6 mRNA expression at 0.2 to 5 uM preincubated for 2 hrs followed by LPS-stimulation for 24 hrs by qRT-PCR analysis; format: functional, cell-based; conditions: dose 0.2-5 µM, time 26.0 hrs
RAW264.7 [7] = assay: Antiinflammatory activity in mouse RAW264.7 cells assessed as decrease in LPS-induced IL-1beta mRNA expression at 0.2 to 5 uM preincubated for 2 hrs followed by LPS-stimulation for 24 hrs by qRT-PCR analysis; format: functional, cell-based; conditions: dose 0.2-5 µM, time 26.0 hrs
RAW264.7 [8] = assay: Antiinflammatory activity in mouse RAW264.7 cells assessed as inhibition of LPS-induced iNOS mRNA expression preincubated for 2 hrs followed by LPS stimulation for 24 hrs by qRT-PCR analysis; format: functional, cell-based; conditions: dose 0.2-5 µM, time 26.0 hrs, DDE = dose-dependent effect
RAW264.7 [9] = assay: Activation of NF-kappaB signalling pathway in mouse RAW264.7 cells assessed as suppression of LPS-induced IkappaBalpha phosphorylation pretreated with compound for 2 hrs followed by LPS-stimulation for 30 mins by Western blot analysis; format: cell-based; conditions: filed as activator, dose 0.2-5 µM, time 2.5 hrs
RAW264.7 [10] = assay: Activation of NF-kappaB signalling pathway in mouse RAW264.7 cells assessed as suppression of LPS-induced IkappaBalpha degradation pretreated with compound for 2 hrs followed by LPS-stimulation for 30 mins by Western blot analysis; format: cell-based; conditions: filed as activator, dose 0.2-5 µM, time 2.5 hrs, DDE = dose-dependent effect
RAW264.7 [11] = assay: Activation of NF-kappaB signalling pathway in mouse RAW264.7 cells assessed as decrease in LPS-induced AKT phosphorylation at 0.2 to 5 uM pretreated with compound for 2 hrs followed by LPS-stimulation for 30 mins by Western blot analysis; format: cell-based; conditions: filed as activator, dose 0.2-5 µM, time 2.5 hrs
[12] = molecular target: T1, Signal transducer and activator of transcription 1 (Mus musculus) (UniProt P42225); assay: Inhibition of LPS-induced STAT1 phosphorylation in mouse RAW264.7 cells pretreated with compound for 2 hrs followed by LPS-stimulation and measured after 30 mins by immunoblot analysis; format: cell-based; conditions: dose 0.2-5 µM, time 2.5 hrs, DDE = dose-dependent effect
T1 sequence (whole entry): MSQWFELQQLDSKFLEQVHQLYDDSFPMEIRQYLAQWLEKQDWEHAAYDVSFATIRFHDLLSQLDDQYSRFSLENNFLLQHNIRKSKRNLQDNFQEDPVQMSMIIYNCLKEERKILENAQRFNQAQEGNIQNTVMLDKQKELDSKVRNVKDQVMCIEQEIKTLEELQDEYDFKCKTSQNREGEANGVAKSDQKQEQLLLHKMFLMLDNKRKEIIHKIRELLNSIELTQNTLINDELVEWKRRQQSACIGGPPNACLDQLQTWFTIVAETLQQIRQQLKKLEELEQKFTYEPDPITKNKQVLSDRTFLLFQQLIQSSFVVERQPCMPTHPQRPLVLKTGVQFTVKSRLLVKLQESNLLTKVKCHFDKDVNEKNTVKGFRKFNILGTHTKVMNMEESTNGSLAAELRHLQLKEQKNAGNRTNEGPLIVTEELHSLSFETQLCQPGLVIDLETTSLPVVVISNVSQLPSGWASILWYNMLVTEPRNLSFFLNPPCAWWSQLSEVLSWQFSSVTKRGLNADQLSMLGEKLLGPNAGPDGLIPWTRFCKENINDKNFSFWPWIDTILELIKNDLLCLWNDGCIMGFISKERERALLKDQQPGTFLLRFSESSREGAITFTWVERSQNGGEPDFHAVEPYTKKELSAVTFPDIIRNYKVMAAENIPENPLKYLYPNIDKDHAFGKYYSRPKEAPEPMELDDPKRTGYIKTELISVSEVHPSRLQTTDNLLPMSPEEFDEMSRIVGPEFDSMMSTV

RAW264.7 [13] = assay: Antiinflammatory activity in LPS-induced mouse RAW264.7 cells assessed as enhancement of JAK2 phosphorylation pretreated with compound for 2 hrs followed by LPS-stimulation and measured after 30 mins by Western blot analysis; format: functional, cell-based; conditions: dose 0.2-5 µM, time 2.5 hrs, DDE = dose-dependent effect
RAW264.7 [14] = assay: Antiinflammatory activity in LPS-induced mouse RAW264.7 cells assessed as enhancement of STAT3 phosphorylation pretreated with compound for 2 hrs followed by LPS-stimulation and measured after 30 mins by Western blot analysis; format: functional, cell-based; conditions: dose 0.2-5 µM, time 2.5 hrs, DDE = dose-dependent effect
RAW264.7 [15] = assay: Antiinflammatory activity in LPS-stimulated mouse RAW264.7 cells assessed as inhibition of IkappaBalpha degradation at 0.2 to 5 uM pretreated with alpha7 nAChR antagonist, alpha-bungarotoxin for 1 hr followed by compound treatment for 2 hrs and further stimulated with LPS for 30 mins by Western blot analysis; format: functional, cell-based; conditions: dose 0.2-5 µM, time 2.5 hrs
RAW264.7 [16] = assay: Antiinflammatory activity in LPS-stimulated mouse RAW264.7 cells assessed as inhibition of NO production at 0.2 to 5 uM pretreated with alpha7 nAChR antagonist alpha-bungarotoxin for 1 hr followed by compound treatment for 2 hrs and further stimulated with LPS for […] reagent based assay; format: functional, cell-based; conditions: dose 0.2-5 µM
Mus musculus [17] = assay: Antiinflammatory activity in LPS-induced ICR sepsis mouse model assessed as suppression of LPS-induced serum interleukin-1beta level at 5 to 20 mg/kg, ip pretreated with compound for 5 days followed by LPS stimulation and measured 2 hrs post last dose by ELISA analysis; format: functional, organism-based; conditions: dose 5-20 mg/kg, time 5.0 day
Mus musculus [18] = assay: Antiinflammatory activity in LPS-induced ICR sepsis mouse model assessed as high survival rate at 5 to 20 mg/kg, ip pretreated with compound for 5 days followed by LPS stimulation and measured 2 hrs post last dose; format: functional, organism-based; conditions: dose 5-20 mg/kg, time 5.0 day
Mus musculus [19] = assay: Antiinflammatory activity in LPS-induced ICR sepsis mouse model assessed as suppression of LPS-induced serum interleukin-6 level at 5 to 20 mg/kg, ip pretreated with compound for 5 days followed by LPS stimulation and measured 2 hrs post last dose by ELISA analysis; format: functional, organism-based; conditions: dose 5-20 mg/kg, time 5.0 day
Mus musculus [20] = assay: Antiinflammatory activity in LPS-induced ICR sepsis mouse model assessed as attenuation of LPS-induced inflammatory cell infiltration at 5 to 20 mg/kg, ip pretreated with compound for 5 days followed by LPS stimulation and measured 2 hrs post last dose by hematoxylin and eosin staining based microscopic analysis; format: functional, organism-based; conditions: dose 5-20 mg/kg, time 5.0 day
Mus musculus [21] = assay: Antiinflammatory activity in LPS-induced ICR sepsis mouse model assessed as attenuation of LPS-induced lung damage at 5 to 20 mg/kg, ip pretreated with compound for 5 days followed by LPS stimulation and measured 2 hrs post last dose by hematoxylin and eosin staining based microscopic analysis; format: functional, organism-based; conditions: dose 5-20 mg/kg, time 5.0 day
RAW264.7 [22] = assay: Antiinflammatory activity in mouse RAW264.7 cells assessed as inhibition of LPS-induced iNOS protein expression preincubated for 2 hrs followed by LPS stimulation for 24 hrs by qRT-PCR analysis; format: functional, cell-based; conditions: time 26.0 hrs, DDE = dose-dependent effect
RAW264.7 [23] = assay: Antiinflammatory activity in LPS-induced mouse RAW264.7 cells assessed as enhancement of JAK2 phosphorylation at 0.2 to 5 uM pretreated with alpha7 nAChR antagonist alpha-bungarotoxin for 1 hr followed by compound treatment for 2 hrs and further stimulated with LPS for 30 mins by Western blot analysis; format: functional, cell-based; conditions: dose 0.2-5 µM, time 2.5 hrs
RAW264.7 [24] = assay: Antiinflammatory activity in LPS-induced mouse RAW264.7 cells assessed as enhancement of STAT3 phosphorylation at 0.2 to 5 uM pretreated with alpha7 nAChR antagonist alpha-bungarotoxin for 1 hr followed by compound treatment for 2 hrs and further stimulated with LPS for 30 mins by Western blot analysis; format: functional, cell-based; conditions: dose 0.2-5 µM, time 2.5 hrs
Mus musculus [25] = assay: Antiinflammatory activity in LPS-induced ICR sepsis mouse model assessed as attenuation of LPS-induced inflammatory cell infiltration at 5 mg/kg, ip pretreated with compound for 5 days followed by LPS stimulation and measured 2 hrs post last dose by hematoxylin and eosin staining based microscopic analysis; format: functional, organism-based; conditions: time 5.0 day
Mus musculus [26] = assay: Antiinflammatory activity in LPS-induced ICR sepsis mouse model assessed as attenuation of LPS-induced lung damage at 5 mg/kg, ip pretreated with compound for 5 days followed by LPS stimulation and measured 2 hrs post last dose by hematoxylin and eosin staining based microscopic analysis; format: functional, organism-based; conditions: time 5.0 day
RAW264.7 [27] = assay: Antiinflammatory activity in mouse RAW264.7 cells assessed as inhibition of LPS-induced IL-6 production at 10 uM preincubated for 2 hrs followed by LPS-stimulation for 24 hrs by ELISA; format: functional, cell-based; conditions: time 26.0 hrs
RAW264.7 [28] = assay: Antiinflammatory activity in mouse RAW264.7 cells assessed as inhibition of LPS-induced IL-1beta production at 10 uM preincubated for 2 hrs followed by LPS-stimulation for 24 hrs by ELISA; format: functional, cell-based; conditions: time 26.0 hrs
Peritoneal macrophage = assay: Antiinflammatory activity in mouse peritoneal macrophages assessed as reduction in LPS-induced NO production at 0.2 to 5 uM preincubated for 2 hrs followed by LPS-stimulation for 22 hrs by Griess reagent based assay; format: functional, cell-based; conditions: dose 0.2-5 µM, time 24.0 hrs
THP-1 [29] = assay: Antiinflammatory activity in human THP-1 monocytes assessed as reduction in LPS/Interferon-gamma NO production at 0.2 to 5 uM pretreated with PMA for 24 hrs followed by compound addition 2 hrs and stimulated with LPS/Interferon-gamma for 22 hrs by Griess reagent based assay; format: functional, cell-based; conditions: dose 0.2-5 µM
THP-1 [30] = assay: Antiinflammatory activity in LPS/IFNgamma-stimulated human THP-1 monocytes assessed as inhibition of NO production pretreated with PMA for 24 hrs and incubated alpha-bungarotoxin for 1 hr followed by compound addition for 2 hrs and further stimulated with LPS/INF-gamma for 22 hrs by Griess reagent based assay; format: functional, cell-based
[31] = molecular target: Neuronal acetylcholine receptor subunit alpha-7 (Mus musculus) (UniProt P49582); assay: Binding affinity to alpha7 nAChR in mouse RAW264.7 cells assessed as increase in thermal stability at 200 uM incubated for 30 min by CETSA; format: cell-based; conditions: filed as agonist
Sequence of Neuronal acetylcholine receptor subunit alpha-7 (Mus musculus) (P49582 whole entry): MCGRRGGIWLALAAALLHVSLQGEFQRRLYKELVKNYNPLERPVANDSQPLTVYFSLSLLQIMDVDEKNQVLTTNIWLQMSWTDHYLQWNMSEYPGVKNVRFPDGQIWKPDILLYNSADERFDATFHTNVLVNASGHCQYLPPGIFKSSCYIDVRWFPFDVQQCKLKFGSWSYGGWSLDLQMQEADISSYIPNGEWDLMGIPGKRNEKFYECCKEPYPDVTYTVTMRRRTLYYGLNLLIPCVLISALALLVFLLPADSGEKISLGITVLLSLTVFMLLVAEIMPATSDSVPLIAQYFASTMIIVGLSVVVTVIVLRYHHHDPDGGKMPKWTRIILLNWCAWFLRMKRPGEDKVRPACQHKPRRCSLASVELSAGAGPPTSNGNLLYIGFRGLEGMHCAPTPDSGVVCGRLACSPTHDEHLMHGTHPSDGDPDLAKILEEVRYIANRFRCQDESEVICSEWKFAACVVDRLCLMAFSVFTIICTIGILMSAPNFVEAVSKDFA

| SMILES | inhibition at 5 µM (RAW264.7 [1]) [%] | pIC50 (RAW264.7 [2]) | Activity (RAW264.7 [3]) | Activity (RAW264.7 [4]) | Activity (RAW264.7 [5]) | Activity (RAW264.7 [6]) | Activity (RAW264.7 [7]) | Activity (RAW264.7 [8]) | Activity (RAW264.7 [9]; DDE = dose-dependent effect) | Activity (RAW264.7 [10]) | Activity (RAW264.7 [11]) | inhibition [12] | Activity (RAW264.7 [13]) | Activity (RAW264.7 [14]) | Activity (RAW264.7 [22]) | Activity (RAW264.7 [23]) | Activity (RAW264.7 [24]) | other results |
| --- | --- | --- | --- | --- | --- | --- | --- | --- | --- | --- | --- | --- | --- | --- | --- | --- | --- | --- |
| CC(=O)Oc1ccc(CC[C@H](CCCCc2ccccc2)OC(C)=O)cc1OC(C)=O | 93.2 | 6.49 | Non-Toxic | Dde | Dde | Active | Active | Dde | Dde | Dde | Active | Dde | Dde | Dde | Dde | Active | Active | Activity (RAW264.7 [15]): Active; Activity (RAW264.7 [16]): Active; Activity (Mus musculus [17]): Active; Activity (Mus musculus [18]): Active; Activity (Mus musculus [19]): Active; Activity (Mus musculus [20]): Active; Activity (Mus musculus [21]): Active |
| C[C@@H]1C[C@H]2[C@@H]3CCC4=CC(=O)C=C[C@]4(C)[C@@]3(F)[C@@H](O)C[C@]2(C)[C@@]1(O)C(=O)CO | – | – | – | – | – | – | – | – | – | – | – | – | – | – | – | – | – | Activity (Mus musculus [25]): Active; Activity (Mus musculus [26]): Active |
| Cc1ccc(S(=O)(=O)/C=C/C#N)cc1 | – | – | – | – | – | – | – | – | – | – | – | – | – | – | – | – | – | Activity (RAW264.7 [9]): Active; Activity (RAW264.7 [27]): Active; Activity (RAW264.7 [28]): Active |
| COc1ccc(/C=C/C=C/C(=O)/C=C/c2ccc(OC)c(O)c2)c(OC)c1 | 106 | 6.26 | Non-Toxic | Dde | Dde | Active | Active | Dde | Dde | Dde | Active | Dde | Dde | Dde | Dde | Active | Active | Activity (Peritoneal macrophage): Active; Activity (THP-1 [29]): Active; Activity (THP-1 [30]): Active; Activity [31]: Active |
